# Experimental data taken from publication PMC9048745, “Physicochemical investigation of a novel curcumin diethyl γ-aminobutyrate, a carbamate ester prodrug of curcumin with enhanced anti-neuroinflammatory activity” (PLoS ONE, 2022).
# Legend:
# [1] = design: method as in PMID 29678124, PMID 25923809, PMID 27758710; details: practically insoluble = <0.1 mg/mL; cited from earlier work
# BV-2 microglial cells = experiment: Cytotoxicity (MTT assay); assay type: cell-based, murine; details: BV-2 cells, 24 h
# Experimental: BV-2 microglial cells were cultured in DMEM supplemented with 10% fetal bovine serum, 2 mM L-glutamine, 1% penicillin/streptomycin (100 units/mL penicillin and 100 μg/mL streptomycin) at 37°C in 5% CO2. BV-2 microglial cells were plated in a 24-well plate at a density of 2 × 10^5 cells/well for 24 h. Various concentrations at 0, 1.25, 2.5, 5, 10, or 20 μM of curcumin or CUR-2GE were determined for a non-toxic concentration. After 24 h, cell viability was assessed by an MTT assay. The media was removed and replaced with an MTT solution in PBS (0.5 mg/mL). After 3-h incubation, the MTT solution was discarded, and formazan crystals formed after the reaction was dissolved in DMSO. The absorbance was then read at 540 nm using a microplate reader (CLARIOstar®, BMG Labtech, Ortenberg, Germany). The percentage of cell viability was expressed relative to the control cells. In addition, the cell viability of BV-2 microglial cells treated with LPS and a combination of LPS and the test compounds was also determined.
# [2] = Identification of incomplete hydrolytic products of CUR-2GE (UPLC-MS/MS); assay type: physicochemical; details: buffer pH 1.2, 37°C, 24 h; ND = not detected
# Experimental: The incomplete hydrolytic products of CUR-2GE were identified in buffers (pH 1.2, 4.5, 6.8 and 7.4) and human plasma. For hydrolysis in the buffer solutions, the stock solution of CUR-2GE at 200 μg/mL was diluted with a pre-incubated buffer in a vial at 37°C to obtain a final concentration at 10 μg/mL. Samples in buffers pH 1.2 and 4.5 were subsequently incubated at 37°C for 24 h while those in buffers pH 6.8 and 7.4 were incubated at 37°C for 7 min. For hydrolysis in human plasma, the stock solution of CUR-2GE at 100 μg/mL in the diluent was prepared and diluted with pre-incubated human plasma at 37°C for 5 min to obtain a final concentration of 5 μg/mL. The sample was incubated at 37°C for 1 h and an aliquot of 300 μL was added with 300 μL of acetonitrile to stop the reaction. The reaction mixture was then centrifuged at 4°C at 14,000 rpm for 30 min. The supernatant was analyzed using UPLC-MS/MS described below. CUR-2GE, CUR-1GE and curcumin standards were prepared at 10 μg/mL in diluent (2% acetic acid in water: acetonitrile (80: 20, v/v)) and were subjected to UPLC-MS/MS analysis. The retention times and MS/MS spectra of CUR-2GE and its hydrolytic products in buffers and human plasma were compared with those of the standards. The UPLC-MS/MS approach was modified from previous studies. […]
# [3] = design: method as in PMID 9278892; details: cited from earlier work
substance,measurement,setting,value
curcumin,USP solubility classification,[1],practically insoluble
same,non-toxic concentrations (no cytotoxicity),BV-2 microglial cells,≤ 10 µM
same,detection by UPLC-MS/MS after incubation of CUR-2GE,[2],not detected
same,"half-life in human plasma, previously reported",[3],8 h
